# Assay results: patent publication US20100179158A1, “INHIBITORS OF CYCLIC AMP PHOSPHODIESTERASES” (priority 2007, published 2010)
# pIC50: −log10 of the molar value.
# Experiments:
# PDE4D3 = target: T1, PDE4D3 (Homo sapiens, UniProt Q08499); assay: IC50 on PDE4D3; type: biochemical; conditions: read-out: IC50, PDE 4D3
# T1 construct: targets used in the assays are full-length proteins (as opposed to simply the catalytic domain); expressed in transfected cells; host or cells: Schizosaccharomyces pombe, gene integrated at the cgs2 locus
# PDE4A1 [1] = target: T2, PDE4A1 (Mus musculus, UniProt O89084); assay: IC50 on PDE4A1; type: biochemical, murine; conditions: read-out: IC50, PDE 4A1
# T2 construct: targets used in the assays are full-length proteins (as opposed to simply the catalytic domain); expressed in transfected cells; host or cells: Schizosaccharomyces pombe, gene integrated at the cgs2 locus
# T2 sequence (O89084 1-610 isoform O89084-2): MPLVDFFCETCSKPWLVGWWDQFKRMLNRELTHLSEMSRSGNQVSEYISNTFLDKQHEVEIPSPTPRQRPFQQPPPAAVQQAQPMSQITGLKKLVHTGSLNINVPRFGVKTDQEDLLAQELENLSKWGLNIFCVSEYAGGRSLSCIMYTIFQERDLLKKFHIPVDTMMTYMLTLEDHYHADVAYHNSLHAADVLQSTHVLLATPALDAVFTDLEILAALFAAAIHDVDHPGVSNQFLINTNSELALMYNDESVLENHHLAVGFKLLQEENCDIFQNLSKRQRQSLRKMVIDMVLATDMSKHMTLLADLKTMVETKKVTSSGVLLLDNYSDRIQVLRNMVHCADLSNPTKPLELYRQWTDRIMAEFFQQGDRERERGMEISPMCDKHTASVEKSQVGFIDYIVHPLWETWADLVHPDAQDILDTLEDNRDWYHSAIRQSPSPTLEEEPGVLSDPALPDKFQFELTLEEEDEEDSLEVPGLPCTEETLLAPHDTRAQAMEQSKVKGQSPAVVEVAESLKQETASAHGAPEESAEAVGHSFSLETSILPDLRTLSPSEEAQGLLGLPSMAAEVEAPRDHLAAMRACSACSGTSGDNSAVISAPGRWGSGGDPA
# PDE4B3 = target: T3, PDE4B3 (Mus musculus, UniProt Q8VBU5); assay: cAMP assay in yeast strain expressing PDE4B3; type: cell-based, murine
# T3 construct: targets used in the assays are full-length proteins (as opposed to simply the catalytic domain); expressed in transfected cells; host or cells: Schizosaccharomyces pombe, gene integrated at the cgs2 locus
# T3 sequence (Q8VBU5 1-721): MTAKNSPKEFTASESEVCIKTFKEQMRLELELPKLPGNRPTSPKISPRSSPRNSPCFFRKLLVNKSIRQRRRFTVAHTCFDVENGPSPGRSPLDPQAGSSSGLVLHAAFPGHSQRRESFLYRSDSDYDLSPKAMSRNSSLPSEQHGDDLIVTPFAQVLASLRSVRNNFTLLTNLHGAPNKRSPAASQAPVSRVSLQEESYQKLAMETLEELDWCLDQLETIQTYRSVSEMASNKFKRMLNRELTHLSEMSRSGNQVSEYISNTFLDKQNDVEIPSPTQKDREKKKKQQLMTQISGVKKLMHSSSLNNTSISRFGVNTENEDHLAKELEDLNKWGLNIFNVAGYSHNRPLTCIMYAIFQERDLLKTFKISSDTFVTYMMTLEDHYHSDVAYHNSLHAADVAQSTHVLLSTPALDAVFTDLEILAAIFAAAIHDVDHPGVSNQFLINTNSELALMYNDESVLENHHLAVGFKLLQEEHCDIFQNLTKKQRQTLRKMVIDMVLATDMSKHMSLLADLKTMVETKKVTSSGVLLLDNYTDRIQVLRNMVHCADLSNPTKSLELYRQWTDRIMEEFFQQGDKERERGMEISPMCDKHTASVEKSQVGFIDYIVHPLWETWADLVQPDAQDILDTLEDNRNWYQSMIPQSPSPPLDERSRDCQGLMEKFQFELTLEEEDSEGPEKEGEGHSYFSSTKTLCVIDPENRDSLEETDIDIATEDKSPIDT
# PDE4A1 [2] = target: T2, PDE4A1; assay: cAMP assay in yeast strain expressing PDE4A1; type: cell-based, murine
# PDE4D2 = target: T4, PDE4D2 (Homo sapiens, UniProt Q08499); assay: cAMP assay in yeast strain expressing PDE4D2; type: cell-based
# T4 construct: targets used in the assays are full-length proteins (as opposed to simply the catalytic domain); expressed in transfected cells; host or cells: Schizosaccharomyces pombe
# T4 sequence (Q08499 303-809): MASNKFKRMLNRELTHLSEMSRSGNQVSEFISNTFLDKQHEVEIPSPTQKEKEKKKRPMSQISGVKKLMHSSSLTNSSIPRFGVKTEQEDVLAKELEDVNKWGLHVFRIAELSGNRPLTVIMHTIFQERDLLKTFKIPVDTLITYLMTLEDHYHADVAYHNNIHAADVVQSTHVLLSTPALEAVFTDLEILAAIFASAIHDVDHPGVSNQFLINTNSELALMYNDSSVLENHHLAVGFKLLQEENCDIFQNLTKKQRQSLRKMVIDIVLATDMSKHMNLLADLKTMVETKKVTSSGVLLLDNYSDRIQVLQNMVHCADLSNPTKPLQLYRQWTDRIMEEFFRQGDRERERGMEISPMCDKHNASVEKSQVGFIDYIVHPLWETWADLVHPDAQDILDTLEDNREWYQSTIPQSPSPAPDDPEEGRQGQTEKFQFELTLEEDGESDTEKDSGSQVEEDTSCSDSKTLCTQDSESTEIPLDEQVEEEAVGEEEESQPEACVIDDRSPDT
# T1 sequence (Q08499 1-673 isoform Q08499-2): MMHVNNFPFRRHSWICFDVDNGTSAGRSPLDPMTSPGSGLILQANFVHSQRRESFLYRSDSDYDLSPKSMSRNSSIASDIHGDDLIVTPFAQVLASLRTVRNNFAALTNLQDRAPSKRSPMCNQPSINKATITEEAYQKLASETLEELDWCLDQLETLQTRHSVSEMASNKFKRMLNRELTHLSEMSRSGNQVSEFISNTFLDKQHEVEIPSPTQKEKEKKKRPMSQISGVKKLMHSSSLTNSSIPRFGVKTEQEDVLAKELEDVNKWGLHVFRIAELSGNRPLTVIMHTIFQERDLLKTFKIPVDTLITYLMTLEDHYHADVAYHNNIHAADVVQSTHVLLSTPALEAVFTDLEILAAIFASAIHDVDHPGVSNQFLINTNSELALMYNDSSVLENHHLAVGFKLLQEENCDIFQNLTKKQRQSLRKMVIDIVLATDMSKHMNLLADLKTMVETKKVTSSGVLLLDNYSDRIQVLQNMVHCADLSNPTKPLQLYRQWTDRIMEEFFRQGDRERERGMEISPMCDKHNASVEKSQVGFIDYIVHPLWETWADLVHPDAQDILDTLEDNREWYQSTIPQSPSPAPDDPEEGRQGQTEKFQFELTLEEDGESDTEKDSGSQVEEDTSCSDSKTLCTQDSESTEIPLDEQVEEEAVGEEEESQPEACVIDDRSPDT
SMILES,pIC50 (PDE4D3),pIC50 (PDE4A1 [1]),"cAMP Response (% rolipram), PDE 4B3 (PDE4B3)","cAMP Response (% rolipram), PDE 4A1 (PDE4A1 [2])","cAMP Response (% rolipram), PDE 4D2 (PDE4D2)"
Cc1ccc2c(c1)c1nc3ccccc3nc1n2C(C)C [Compound 41],6.70,6.19,–,–,–
COC(=O)C1=C(C)N(C2CCCCC2)C(=O)/C1=C\c1cccs1 [Compound 22],–,–,51.00 % rolipram,54.00 % rolipram,ND ND ND 34.00 ND % rolipram
COC(=O)C1=C(C)N(c2ccccc2Cl)C(=O)/C1=C\c1cccs1 [Compound 27],7.00,7.00,71.00 % rolipram,78.00 % rolipram,ND ND ND 11.00 ND % rolipram
